Measured values as given in ChEMBL document CHEMBL1201862, “PubChem BioAssay data set” (2004).
The source made the active and inactive calls.

What was measured:
[1] = Luminescence Cell-Based Dose Confirmation HTS to Identify Activators of 5'UTR Stem-Loop Driven Alpha-Synuclein mRNA Translation in H4 Neuroglioblastoma Cells. [Related pubchem assays: 1829 (Project Summary), 1814 (Primary HTS)]; type: functional
[2] = Luminescence Cell-Based Dose Response HTS to Identify Activators of Luciferase Translation or Activity in H4 […] Cells. [Related pubchem assays: 1829 (Project Summary), 1814 (Primary HTS)]; type: functional
[3] = target: Serine/threonine-protein phosphatase PP1-alpha catalytic subunit (Homo sapiens, UniProt P62136); assay: PP1 phosphatase inhibitors, dose response, biochemical, fluorescence (AID 2403);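 note: phosphatase turnover of OMFP into fluorescent 3-O-methylfluorescein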
Sequence of Serine/threonine-protein phosphatase PP1-alpha catalytic subunit (P62136 whole entry): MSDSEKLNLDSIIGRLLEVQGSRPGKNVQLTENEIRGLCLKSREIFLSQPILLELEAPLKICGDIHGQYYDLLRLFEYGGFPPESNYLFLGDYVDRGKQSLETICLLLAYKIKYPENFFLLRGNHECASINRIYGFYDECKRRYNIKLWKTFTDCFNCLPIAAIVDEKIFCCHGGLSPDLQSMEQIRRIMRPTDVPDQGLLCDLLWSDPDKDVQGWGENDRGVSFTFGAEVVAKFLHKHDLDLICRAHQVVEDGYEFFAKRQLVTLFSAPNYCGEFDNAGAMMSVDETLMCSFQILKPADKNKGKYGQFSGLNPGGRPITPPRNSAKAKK

[4] = test system: H4; assay: Luminescence Cell-Based Dose Response HTS to Identify Activators of 5'UTR Stem-Loop Driven Prion Protein mRNA Translation in H4 Neuroglioblastoma Cells. [Related pubchem assays: 1829 (Project Summary), 1814 (Primary HTS)]; type: functional; details: Homo sapiens
[5] = target: Serine/threonine-protein phosphatase (Homo sapiens, UniProt Q9BPW0); assay: Counterscreen for inhibitors of PP1: fluorescence-based biochemical high throughput dose response assay to identify inhibitors of Protein Phosphatase 5 (PP5). [Related pubchem assays: 2034 (Summary (PP5 inhibitors)), 1987 (PP5 inhibitors in singlate), 2235 (PP1 inhibitors in singlate)]
Sequence of Serine/threonine-protein phosphatase (Q9BPW0 whole entry): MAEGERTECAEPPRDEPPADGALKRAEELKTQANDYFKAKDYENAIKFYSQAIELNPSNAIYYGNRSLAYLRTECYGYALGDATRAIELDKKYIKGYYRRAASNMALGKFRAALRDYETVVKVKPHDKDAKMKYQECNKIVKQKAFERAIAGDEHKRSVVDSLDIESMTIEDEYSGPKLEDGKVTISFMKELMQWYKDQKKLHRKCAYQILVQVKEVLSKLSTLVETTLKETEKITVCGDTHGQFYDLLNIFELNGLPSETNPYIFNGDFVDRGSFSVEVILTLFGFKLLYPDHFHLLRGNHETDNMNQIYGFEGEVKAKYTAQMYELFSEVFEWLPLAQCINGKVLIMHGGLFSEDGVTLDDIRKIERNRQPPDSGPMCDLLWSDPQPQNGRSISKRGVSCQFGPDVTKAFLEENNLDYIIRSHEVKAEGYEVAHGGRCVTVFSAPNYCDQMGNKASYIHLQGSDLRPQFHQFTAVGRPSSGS

[6] = target: T1, Mannose-6-phosphate isomerase (Homo sapiens, UniProt P34949); assay: human PMI inhibitors, high substrate, primary screen, biochemical, fluorescence intensity, high mannose 6-phosphate (AID 1220)
T1 sequence (P34949 whole entry): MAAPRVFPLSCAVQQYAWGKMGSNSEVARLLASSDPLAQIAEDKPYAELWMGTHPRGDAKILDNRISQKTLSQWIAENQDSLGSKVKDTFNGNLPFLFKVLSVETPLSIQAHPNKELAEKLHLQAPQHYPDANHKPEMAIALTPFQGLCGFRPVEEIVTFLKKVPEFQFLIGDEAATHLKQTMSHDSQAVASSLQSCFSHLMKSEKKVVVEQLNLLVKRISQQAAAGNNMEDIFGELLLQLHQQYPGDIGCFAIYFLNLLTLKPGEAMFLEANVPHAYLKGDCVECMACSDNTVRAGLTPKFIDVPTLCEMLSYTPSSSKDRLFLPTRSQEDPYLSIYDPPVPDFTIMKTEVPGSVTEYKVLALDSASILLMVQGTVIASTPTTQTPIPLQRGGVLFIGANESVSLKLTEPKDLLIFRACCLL

[7] = target: T2, Apoptotic protease-activating factor 1 (Homo sapiens, UniProt O14727); type: functional
T2 sequence (O14727 whole entry): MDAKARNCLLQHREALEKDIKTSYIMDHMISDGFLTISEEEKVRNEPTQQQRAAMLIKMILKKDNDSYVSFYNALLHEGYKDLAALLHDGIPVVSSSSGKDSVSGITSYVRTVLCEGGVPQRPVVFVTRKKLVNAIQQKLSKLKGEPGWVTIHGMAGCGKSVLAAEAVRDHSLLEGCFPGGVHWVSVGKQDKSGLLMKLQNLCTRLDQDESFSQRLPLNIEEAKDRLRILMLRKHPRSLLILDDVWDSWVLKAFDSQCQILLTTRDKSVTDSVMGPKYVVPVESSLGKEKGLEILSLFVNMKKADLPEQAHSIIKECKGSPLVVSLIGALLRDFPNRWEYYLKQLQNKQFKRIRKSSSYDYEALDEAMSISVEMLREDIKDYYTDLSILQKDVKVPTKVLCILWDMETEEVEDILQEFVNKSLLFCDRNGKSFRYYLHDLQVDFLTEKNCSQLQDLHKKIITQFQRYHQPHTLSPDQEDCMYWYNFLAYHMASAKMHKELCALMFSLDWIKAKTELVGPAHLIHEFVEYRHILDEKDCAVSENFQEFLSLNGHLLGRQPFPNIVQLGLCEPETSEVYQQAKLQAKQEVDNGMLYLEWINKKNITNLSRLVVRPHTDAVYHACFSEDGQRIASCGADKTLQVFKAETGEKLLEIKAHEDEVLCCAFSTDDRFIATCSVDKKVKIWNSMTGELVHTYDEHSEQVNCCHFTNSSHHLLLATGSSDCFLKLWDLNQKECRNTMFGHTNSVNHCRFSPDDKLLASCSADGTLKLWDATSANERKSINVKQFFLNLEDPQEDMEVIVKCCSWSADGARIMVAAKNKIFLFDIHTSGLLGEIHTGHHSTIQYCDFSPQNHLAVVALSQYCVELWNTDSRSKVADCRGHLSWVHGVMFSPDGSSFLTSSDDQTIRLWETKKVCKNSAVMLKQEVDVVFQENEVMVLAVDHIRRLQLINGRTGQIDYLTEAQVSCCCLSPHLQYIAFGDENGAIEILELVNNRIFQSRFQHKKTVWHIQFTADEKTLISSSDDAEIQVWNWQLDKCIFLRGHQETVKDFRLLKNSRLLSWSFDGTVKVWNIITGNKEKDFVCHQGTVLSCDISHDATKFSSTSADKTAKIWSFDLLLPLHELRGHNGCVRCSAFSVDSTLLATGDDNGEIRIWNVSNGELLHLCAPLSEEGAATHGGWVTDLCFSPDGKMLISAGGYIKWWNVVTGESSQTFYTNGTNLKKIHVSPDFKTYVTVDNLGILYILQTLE

[8] = test system: Streptococcus; assay: Luminescence Microorganism-Based Dose Response Follow up to Identify Compounds Cytotoxic to Streptococcus. [Related pubchem assays: 1677 (Project Summary), 1915, 1914, 1902 (Retest at Dose), 1900 (Counter Screen), 1662 (Primary HTS)]; type: functional, organism-based
[9] = target: T3, Neuropeptide Y receptor type 2 (Homo sapiens, UniProt P49146); assay: Fluorescence-based counterscreen for agonists of NPY-Y1: cell-based high-throughput dose response assay for agonists of NPY-Y2.; type: functional
T3 sequence (P49146 whole entry): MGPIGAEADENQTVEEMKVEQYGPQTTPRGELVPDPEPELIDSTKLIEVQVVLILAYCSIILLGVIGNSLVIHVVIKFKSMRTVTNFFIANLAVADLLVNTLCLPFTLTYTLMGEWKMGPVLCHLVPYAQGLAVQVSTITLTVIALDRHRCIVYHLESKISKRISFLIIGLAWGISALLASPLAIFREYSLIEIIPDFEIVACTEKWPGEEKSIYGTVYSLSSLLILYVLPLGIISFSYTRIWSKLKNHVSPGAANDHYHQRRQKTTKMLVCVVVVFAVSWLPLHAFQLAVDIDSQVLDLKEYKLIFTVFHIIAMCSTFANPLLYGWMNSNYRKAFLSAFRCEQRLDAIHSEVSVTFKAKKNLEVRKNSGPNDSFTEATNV

[10] = test system: HEK293; assay: Fluorescence-based counterscreen for potentiators or agonists of NPY-Y1: cell-based high-throughput dose response assay for inhibitors of cyclic nucleotide gated ion channel (CNGC) activity. In this assay, the parental HEK293 cell line transfected with a cyclic-nucleotide gated ion channel (CNGC)-based cAMP sensor is used to measure inhibition of isoproterenol-induced CNGC …; type: functional; details: Homo sapiens
[11] = target: T4, Neuropeptide Y receptor type 1 (Homo sapiens, UniProt P25929); assay: Fluorescence-based dose response cell-based high-throughput screening assay for agonists of NPY-Y1. [Related pubchem assays: 1697 (Screening assay (NPY-Y1 agonists).), 1359 (Screening assay (NPY-Y2 potentiators or agonists).), 1304 (Screening assay (NPY-Y1 potentiators or agonists).), 1704 (Screening assay (CNGC inhibitors).), 1791 (Summary AID.)]; type: functional
T4 sequence (P25929 whole entry): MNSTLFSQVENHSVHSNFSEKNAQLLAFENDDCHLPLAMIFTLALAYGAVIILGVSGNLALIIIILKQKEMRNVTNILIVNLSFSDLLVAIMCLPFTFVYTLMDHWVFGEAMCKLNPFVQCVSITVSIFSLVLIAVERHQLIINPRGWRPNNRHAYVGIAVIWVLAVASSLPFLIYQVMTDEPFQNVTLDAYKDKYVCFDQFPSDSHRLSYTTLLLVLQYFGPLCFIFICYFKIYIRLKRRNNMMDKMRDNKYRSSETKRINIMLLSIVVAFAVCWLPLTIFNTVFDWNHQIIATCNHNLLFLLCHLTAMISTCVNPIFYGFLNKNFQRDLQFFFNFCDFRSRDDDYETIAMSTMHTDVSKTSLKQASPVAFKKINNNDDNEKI

[12] = target: T5, Eukaryotic translation initiation factor 2-alpha kinase 3 (Homo sapiens, UniProt Q9NZJ5); assay: Dose response cell-based high-throughput screening assay to measure PERK inhibition. [Related pubchem assays: 1416 ]; type: functional
T5 sequence (Q9NZJ5 whole entry): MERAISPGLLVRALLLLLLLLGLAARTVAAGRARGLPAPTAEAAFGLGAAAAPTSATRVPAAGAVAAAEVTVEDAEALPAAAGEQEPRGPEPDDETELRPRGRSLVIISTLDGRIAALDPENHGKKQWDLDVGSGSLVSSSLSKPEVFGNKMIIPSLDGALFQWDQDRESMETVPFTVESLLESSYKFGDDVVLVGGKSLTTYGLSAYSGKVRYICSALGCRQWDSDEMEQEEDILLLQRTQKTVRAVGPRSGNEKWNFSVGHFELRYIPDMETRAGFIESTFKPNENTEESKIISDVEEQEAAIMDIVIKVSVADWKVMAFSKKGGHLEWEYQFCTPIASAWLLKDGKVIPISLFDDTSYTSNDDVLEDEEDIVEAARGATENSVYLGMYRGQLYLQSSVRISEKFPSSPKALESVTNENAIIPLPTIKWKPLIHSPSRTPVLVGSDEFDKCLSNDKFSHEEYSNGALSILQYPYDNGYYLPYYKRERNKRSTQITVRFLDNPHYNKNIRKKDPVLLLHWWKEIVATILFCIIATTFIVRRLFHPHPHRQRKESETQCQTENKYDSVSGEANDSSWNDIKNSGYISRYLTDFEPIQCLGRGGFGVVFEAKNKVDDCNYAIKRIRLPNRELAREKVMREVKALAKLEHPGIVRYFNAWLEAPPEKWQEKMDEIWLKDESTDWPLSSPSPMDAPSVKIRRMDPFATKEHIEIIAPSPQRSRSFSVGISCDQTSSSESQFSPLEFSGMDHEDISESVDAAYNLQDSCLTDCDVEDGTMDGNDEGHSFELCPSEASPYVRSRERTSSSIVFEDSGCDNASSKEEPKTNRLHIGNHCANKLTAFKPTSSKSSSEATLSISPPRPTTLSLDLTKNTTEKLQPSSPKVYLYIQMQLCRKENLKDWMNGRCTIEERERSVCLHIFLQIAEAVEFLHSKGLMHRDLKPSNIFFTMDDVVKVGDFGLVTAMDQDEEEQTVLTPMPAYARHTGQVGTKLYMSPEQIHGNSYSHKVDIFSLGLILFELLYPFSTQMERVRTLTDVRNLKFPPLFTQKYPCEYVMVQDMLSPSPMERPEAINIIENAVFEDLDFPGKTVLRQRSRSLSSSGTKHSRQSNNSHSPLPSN

[13] = target: T5, Eukaryotic translation initiation factor 2-alpha kinase 3; assay: Counterscreen assay for PERK inhibitors: Dose response cell-based high throughput screening assay to measure inhibition of PERK at 6 hours. [Related pubchem assays: 1522, 1416 ]; type: functional
[14] = target: Mitochondrial peptide methionine sulfoxide reductase (Bos taurus, UniProt P54149); type: functional;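 note: absorbance read-out, biochemical high-throughput dose-response screen for MsrA inhibitors, confirmatory; recombinant bovine MsrA coupled to E. coli TrxB with NADPH and selenocystamine; potency is for inhibitors of MsrA activity on DMSO substrate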
Sequence of Mitochondrial peptide methionine sulfoxide reductase (P54149 whole entry): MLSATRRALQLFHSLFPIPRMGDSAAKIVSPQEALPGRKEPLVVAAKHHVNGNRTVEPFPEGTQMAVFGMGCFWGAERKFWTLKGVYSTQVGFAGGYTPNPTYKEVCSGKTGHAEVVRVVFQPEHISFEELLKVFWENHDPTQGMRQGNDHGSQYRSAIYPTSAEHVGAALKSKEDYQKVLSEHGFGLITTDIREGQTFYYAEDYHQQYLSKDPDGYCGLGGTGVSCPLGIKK

[15] = target: T6, Alkaline phosphatase, tissue-nonspecific isozyme (Homo sapiens, UniProt P05186)
T6 sequence (P05186 whole entry): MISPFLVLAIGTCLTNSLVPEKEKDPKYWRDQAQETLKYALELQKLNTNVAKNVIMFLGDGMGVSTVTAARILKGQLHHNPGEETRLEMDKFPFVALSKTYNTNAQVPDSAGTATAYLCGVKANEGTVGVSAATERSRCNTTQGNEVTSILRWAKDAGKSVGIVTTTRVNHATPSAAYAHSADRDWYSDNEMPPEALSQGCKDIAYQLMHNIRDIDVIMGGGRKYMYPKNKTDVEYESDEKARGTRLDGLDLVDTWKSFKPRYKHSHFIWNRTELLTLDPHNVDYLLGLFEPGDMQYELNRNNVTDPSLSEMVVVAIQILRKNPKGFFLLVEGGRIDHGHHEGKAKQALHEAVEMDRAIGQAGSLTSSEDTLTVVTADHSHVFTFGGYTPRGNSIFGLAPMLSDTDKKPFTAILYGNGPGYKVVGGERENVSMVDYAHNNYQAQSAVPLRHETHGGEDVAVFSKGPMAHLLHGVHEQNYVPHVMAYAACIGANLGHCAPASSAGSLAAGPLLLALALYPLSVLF

[16] = target: T7, Short transient receptor potential channel 4 (Mus musculus, UniProt Q9QUQ5); assay: mouse TRPC4 channel inhibitors, dose response, cell-based, HEK293 TRPC4/mu-opioid, Fluo-4 calcium (AID 434942); type: functional;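 note: potency of inhibitors blocking the TRPC4 calcium response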
T7 sequence (Q9QUQ5 whole entry): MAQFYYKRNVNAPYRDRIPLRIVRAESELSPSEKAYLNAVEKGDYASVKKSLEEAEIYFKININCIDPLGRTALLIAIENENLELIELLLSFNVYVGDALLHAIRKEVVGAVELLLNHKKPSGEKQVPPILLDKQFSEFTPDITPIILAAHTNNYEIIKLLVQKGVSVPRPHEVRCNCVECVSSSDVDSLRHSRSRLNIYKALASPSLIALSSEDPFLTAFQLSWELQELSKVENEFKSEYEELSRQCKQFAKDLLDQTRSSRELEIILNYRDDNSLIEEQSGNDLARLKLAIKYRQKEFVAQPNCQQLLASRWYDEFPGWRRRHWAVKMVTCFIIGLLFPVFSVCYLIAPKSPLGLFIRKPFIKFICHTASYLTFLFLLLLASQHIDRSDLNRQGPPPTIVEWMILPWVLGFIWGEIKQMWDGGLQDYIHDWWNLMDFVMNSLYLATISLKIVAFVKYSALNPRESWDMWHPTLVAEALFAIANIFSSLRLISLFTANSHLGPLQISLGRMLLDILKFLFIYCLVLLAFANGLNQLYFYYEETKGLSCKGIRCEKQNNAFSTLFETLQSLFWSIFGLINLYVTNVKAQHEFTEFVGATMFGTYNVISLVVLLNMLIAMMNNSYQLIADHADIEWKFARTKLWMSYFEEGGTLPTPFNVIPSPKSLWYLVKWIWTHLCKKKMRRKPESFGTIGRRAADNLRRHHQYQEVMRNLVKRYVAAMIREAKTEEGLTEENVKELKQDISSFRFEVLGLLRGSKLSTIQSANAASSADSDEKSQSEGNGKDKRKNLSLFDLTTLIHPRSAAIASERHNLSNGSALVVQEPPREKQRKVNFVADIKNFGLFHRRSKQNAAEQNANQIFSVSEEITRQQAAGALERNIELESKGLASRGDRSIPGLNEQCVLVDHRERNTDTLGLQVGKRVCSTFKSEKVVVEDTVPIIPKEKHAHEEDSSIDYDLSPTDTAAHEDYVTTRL

[17] = target: Intestinal-type alkaline phosphatase (Mus musculus, UniProt P24822); assay: PubChem AID 488785; type: functional
Sequence of Intestinal-type alkaline phosphatase (Mus musculus, UniProt P24822) (P24822 whole entry): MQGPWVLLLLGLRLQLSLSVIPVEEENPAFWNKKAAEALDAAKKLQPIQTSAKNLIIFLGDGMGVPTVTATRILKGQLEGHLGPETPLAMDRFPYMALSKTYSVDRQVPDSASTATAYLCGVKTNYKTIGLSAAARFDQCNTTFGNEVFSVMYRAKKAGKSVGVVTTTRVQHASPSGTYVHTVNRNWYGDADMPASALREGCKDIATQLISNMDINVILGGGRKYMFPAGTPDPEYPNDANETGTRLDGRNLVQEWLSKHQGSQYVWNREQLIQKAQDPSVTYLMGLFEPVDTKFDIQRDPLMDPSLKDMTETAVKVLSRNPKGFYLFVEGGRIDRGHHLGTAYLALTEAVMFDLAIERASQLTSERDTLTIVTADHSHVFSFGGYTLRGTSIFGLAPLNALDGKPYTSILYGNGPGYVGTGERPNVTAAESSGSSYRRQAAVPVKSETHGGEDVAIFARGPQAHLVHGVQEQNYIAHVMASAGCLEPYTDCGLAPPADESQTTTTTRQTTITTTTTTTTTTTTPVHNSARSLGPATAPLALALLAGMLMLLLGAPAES

[18] = target: T6, Alkaline phosphatase, tissue-nonspecific isozyme; assay: TNAP enzyme inhibition by screening hits, dose response, selectivity assay for mouse IAP inhibitor project, biochemical, human TNAP, uHTS hits (AID 488906); type: functional
[19] = target: Cysteine protease ATG4B (Homo sapiens, UniProt Q9Y4P1); type: functional;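 note: Fluorescence-based dose-response confirmation assay measuring inhibition of ATG4B activity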
Sequence of Cysteine protease ATG4B (Q9Y4P1 whole entry): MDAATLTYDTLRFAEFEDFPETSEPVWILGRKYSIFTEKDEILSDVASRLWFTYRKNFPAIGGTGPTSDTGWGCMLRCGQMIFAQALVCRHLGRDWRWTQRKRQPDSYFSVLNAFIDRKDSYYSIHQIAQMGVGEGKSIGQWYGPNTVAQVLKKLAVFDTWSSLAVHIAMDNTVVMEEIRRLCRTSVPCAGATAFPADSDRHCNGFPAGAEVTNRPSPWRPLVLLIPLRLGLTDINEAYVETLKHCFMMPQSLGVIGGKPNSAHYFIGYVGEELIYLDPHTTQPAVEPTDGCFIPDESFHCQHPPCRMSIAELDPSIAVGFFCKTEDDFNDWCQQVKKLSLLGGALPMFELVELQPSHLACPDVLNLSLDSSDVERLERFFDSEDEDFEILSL

[20] = target: Intestinal-type alkaline phosphatase (Homo sapiens, UniProt P09923); assay: inhibition of human intestinal alkaline phosphatase – biochemical, dose response (AID 488876); type: functional
Sequence of Intestinal-type alkaline phosphatase (Homo sapiens, UniProt P09923) (P09923 whole entry): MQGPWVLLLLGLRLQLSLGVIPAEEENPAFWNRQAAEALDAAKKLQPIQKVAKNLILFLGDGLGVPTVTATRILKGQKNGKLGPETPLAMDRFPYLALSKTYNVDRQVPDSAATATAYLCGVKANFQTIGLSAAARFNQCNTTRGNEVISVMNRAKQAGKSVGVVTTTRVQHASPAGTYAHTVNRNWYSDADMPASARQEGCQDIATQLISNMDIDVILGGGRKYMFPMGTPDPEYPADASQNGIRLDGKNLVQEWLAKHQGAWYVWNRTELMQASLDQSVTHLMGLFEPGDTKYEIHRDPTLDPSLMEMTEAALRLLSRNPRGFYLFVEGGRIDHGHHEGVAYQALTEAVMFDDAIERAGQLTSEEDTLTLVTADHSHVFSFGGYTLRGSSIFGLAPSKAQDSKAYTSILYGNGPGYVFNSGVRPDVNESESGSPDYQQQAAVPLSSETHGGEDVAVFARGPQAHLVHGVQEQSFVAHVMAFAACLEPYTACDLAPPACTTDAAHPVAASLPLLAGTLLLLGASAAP

[21] = target: Phospholipase A2 (Homo sapiens, UniProt P04054); type: functional;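 note: confirmatory dose-response counterscreen on phospholipase A2, testing hits that came from an ultra-high-throughput screen for ATG4B inhibitors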
Sequence of Phospholipase A2 (P04054 whole entry): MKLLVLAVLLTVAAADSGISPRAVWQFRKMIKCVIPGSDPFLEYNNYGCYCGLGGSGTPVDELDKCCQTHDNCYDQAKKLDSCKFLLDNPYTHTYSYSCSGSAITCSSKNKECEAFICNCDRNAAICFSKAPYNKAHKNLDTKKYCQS

Compound: N#Cc1c(N2CCCC(O)C2)nc(N)c2c(N)nc3c(c12)CC(=O)N3C12CC3CC(CC(C3)C1)C2 (stereo unspecified)
- EC50 [1]: 12.6 µM (active)
- EC50 [2]: 9.64 µM (active)
- IC50 [3]: > 67 µM (not active)
- EC50 [4]: > 120 µM (not active)
- IC50 [5]: 29.5 µM (not active)
- IC50 [6]: > 50 µM (not active)
- IC50 [7]: 73 µM (active)

Compound: O=C(c1ccc(Cl)cc1)n1c2ccccc2c2ccccc21
- EC50 [8]: > 500 µM (not active)

Compound: CC(C)c1ccc2[nH]c(O)c(N=NC(=O)c3cccc(S(=O)(=O)Nc4cccc(Cl)c4)c3)c2c1
- EC50 [9]: > 35.4 µM (not active)
- IC50 [10]: > 35.4 µM (not active)
- EC50 [11]: > 35.4 µM (not active)

Compound: NC(=S)N/N=C/c1ccc(/C=N/NC(N)=S)cc1
- EC50 [12]: > 55.7 µM (not active)
- EC50 [13]: > 55.7 µM (not active)
- IC50 [14]: 155 µM (inactive)

Compound: Cc1ccc(CN2C3CCCC2CC(NC(=S)NCc2ccccc2)C3)cc1 (stereo unspecified)
- EC50 [15]: 64.9 µM (not active)
- EC50 [16]: 2.66 µM (active)
- IC50 [17]: 5.23 µM (active)
- IC50 [18]: 91.3 µM (active)
- IC50 [19]: 15.6 µM (active)
- IC50 [20]: > 100 µM (inactive)
- IC50 [21]: 7.96 µM (active)
